Source: patent publication US11510886B2, “Metformin amino acid compounds and methods of using the same” (Laboratorios Silancs S.A. DE C.V., priority 2016, dated 2022)

Test system: RAW264.7 macrophages
Assay: GPBP and pro-IL-1β expression in stimulated RAW264.7 macrophages
Assay type: cell-based
Procedure: FIG. 87. […] RAW264.7 macrophages cultured in DMEM, supplemented with 10% FBS and antibiotics, were treated with the indicated concentrations of either SLN1, SLN10 for 2 hours, after which LPS (1 μg/mL) was added to cultures. After incubating for 16 hours, the relative expression quantification (RQ) for GPBP was analyzed by RT-qPCR, using HPRT-1 as a normalizer and non-stimulated cells (cells) as a reference point.
FIG. 88. […] RAW264.7 macrophages were treated as shown in FIG. 87 and analyzed by flow cytometry, using for sample processing the Cytofix/Cytoperm (BD) kit, according to the manufacturer's instructions, as well as specific antibodies against GPBP (N27) and pro-IL-1β, conjugated with FITC and phycoerythrin (PE), correspondingly. The intensity of fluorescence (IF) emission median value is shown in arbitrary units (a.u.) for each of the series. Non-treated cells were used as a reference point and their corresponding isotype controls were carried out. The median is usually used in fluorescence quantitative studies to minimize the influence of extreme values that may distort the real mean value. Isotype controls were carried out to eliminate background, caused by nonspecific fluorescence; nonspecific antibodies from the same isotype of those used to detect GPBP and pro-IL-1β were used. […]

metformin lysinate
GPBP secretion induced by LPS and IC (FIG. 90): less ability to reduce GPBP secretion
induced expression of GPBP (LPS or LPS and IFN-γ, flow cytometry (FIGS. 88, 89)): more efficiently inhibited by SLN10
